The values below come from patent US20250333424A1, “ANTIVIRAL COMPOUNDS” (Gilead Sciences, Inc., priority 2024, published 2025).

For the assay, the system named is monocytic THP1 cells infected with HIV VSV-G pseudotyped GFP-NEF reporter virus. The assay can be described thus: cells. In kind it is cell-based. The note with it: Human immunodeficiency virus 1, THP-1, 24 h.

The molecule `CCOc1cc(/C=C/C#N)cc(Cl)c1Oc1nc(NC23CC(C#N)(C2)C3)nc2[nH]nc(C)c12` [Compound 3, (E)-3-((4-(2-chloro-4-(2-cyanovinyl)-6-ethoxyphenoxy)-3-methyl-11H-pyrazolo[3,4-d]pyrimidin-6-yl)amino)bicyclo[1.1.1]pentane-1-carbonitrile] gave an EC50 of 29.6 nM. Molecule `Cc1cc(/C=C/C#N)c(C(F)(F)F)c(C)c1Oc1nc(NC23CC(C#N)(C2)C3)nc2nn(C)cc12` [Compound 4, (E)-3-((4-(4-(2-cyanovinyl)-2,6-dimethyl-3-(trifluoromethyl)phenoxy)-2-methyl-2H-pyrazolo[3,4-d]pyrimidin-6-yl)amino)bicyclo[1.1.1]pentane-1-carbonitrile] returned an EC50 of 1490 nM. Against the preceding molecule, the EC50 is about 50-fold higher. As for `Cn1cc2c(Oc3c(F)cc(/C=C/C#N)cc3Cl)nc(NC34CC(C#N)(C3)C4)nc2n1` [Compound 5, (E)-3-((4-(2-chloro-4-(2-cyanovinyl)-6-fluorophenoxy)-2-methyl-2H-pyrazolo[3,4-d]pyrimidin-6-yl)amino)bicyclo[1.1.1]pentane-1-carbonitrile], the concentration giving a half-maximal response (EC50) turned out to be 26.1 nM. This EC50 lies about 57-fold lower than the previous one. For `Cc1cc(/C=C/C#N)cc(Cl)c1Oc1nc(NC23CC(C#N)(C2)C3)nc2nn(C)cc12` [Compound 6, (E)-3-((4-(2-chloro-4-(2-cyanovinyl)-6-methylphenoxy)-2-methyl-2H-pyrazolo[3,4-d]pyrimidin-6-yl)amino)bicyclo[1.1.1]pentane-1-carbonitrile], a half-maximal response (EC50) required 17.4 nM. Take `CCc1cc(/C=C/C#N)cc(Cl)c1Oc1nc(NC23CC(C#N)(C2)C3)nc2nn(C)cc12` [Compound 7, (E)-3-((4-(2-chloro-4-(2-cyanovinyl)-6-ethylphenoxy)-2-methyl-2H-pyrazolo[3,4-d]pyrimidin-6-yl)amino)bicyclo[1.1.1]pentane-1-carbonitrile]: the EC50 amounted to 21.4 nM. The EC50 values of the last two molecules are within 1.5-fold of each other. In turn, `Cc1cc(/C=C/C#N)c(C)c(C)c1Oc1nc(NC23CC(C#N)(C2)C3)nc2nn(C)cc12` [Compound 8, (E)-3-((4-(4-(2-cyanovinyl)-2,3,6-trimethylphenoxy)-2-methyl-2H-pyrazolo[3,4-d]pyrimidin-6-yl)amino)bicyclo[1.1.1]pentane-1-carbonitrile] had a half-maximal effective concentration (EC50) of 44.6 nM. For `Cc1cc(/C=C/C#N)cc(C)c1Oc1nc(NC23CC(C#N)(C2)C3)nc2ncn(C(F)F)c12` [Compound 12, (E)-3-((6-(4-(2-cyanovinyl)-2,6-dimethylphenoxy)-7-(difluoromethyl)-7H-purin-2-yl)amino)bicyclo[1.1.1]pentane-1-carbonitrile], the response was half-maximal at 5.68 nM (EC50). In the case of `Cc1cc(/C=C/C#N)cc(C)c1Oc1nc(NC23CC(C#N)(C2)C3)nc2nc(C)n(C(F)F)c12` [Compound 13, (E)-3-((6-(4-(2-cyanovinyl)-2,6-dimethylphenoxy)-7-(difluoromethyl)-8-methyl-7H-purin-2-yl)amino)bicyclo[1.1.1]pentane-1-carbonitrile], it took 11.7 nM to reach a half-maximal effect (EC50). Molecule `Cc1cc(/C=C/C#N)cc(C)c1Oc1nc(NC23CC(C#N)(C2)C3)nc2c1nc(C)n2C(F)F` [Compound 15, (E)-3-((6-(4-(2-cyanovinyl)-2,6-dimethylphenoxy)-9-(difluoromethyl)-8-methyl-9H-purin-2-yl)amino)bicyclo[1.1.1]pentane-1-carbonitrile] registered an EC50 of 109 nM. Molecule `CCc1nc2nc(NC34CC(C#N)(C3)C4)nc(Oc3c(C)cc(/C=C/C#N)cc3C)c2n1C(F)F` [Compound 17, (E)-3-((6-(4-(2-cyanovinyl)-2,6-dimethylphenoxy)-7-(difluoromethyl)-8-ethyl-7H-purin-2-yl)amino)bicyclo[1.1.1]pentane-1-carbonitrile] showed a half-maximal effective concentration (EC50) of 21.4 nM. This EC50 lies about 5.1-fold lower than the previous one.

On to `Cc1cc(/C=C/C#N)cc(C)c1Oc1nc(NC23CC(C#N)(C2)C3)nc2[nH]c(=O)n(C)c12` [Compound 24, (E)-3-((6-(4-(2-cyanovinyl)-2,6-dimethylphenoxy)-7-methyl-8-oxo-8,9-dihydro-7H-purin-2-yl)amino)bicyclo[1.1.1]pentane-1-carbonitrile], for which the EC50 was 32 nM.

In the case of `Cc1cc(/C=C/C#N)cc(C)c1Oc1nc(NC23CC(C#N)(C2)C3)nc2nc(C(F)F)n(C)c12` [Compound 25, (E)-3-((6-(4-(2-cyanovinyl)-2,6-dimethylphenoxy)-8-(difluoromethyl)-7-methyl-7H-purin-2-yl)amino)bicyclo[1.1.1]pentane-1-carbonitrile], a half-maximal effect (EC50) was put at 37.2 nM. On to `Cc1cc(/C=C/C#N)cc(C)c1Oc1nc(NC23CC(C#N)(C2)C3)nc2nc(C(F)F)[nH]c12` [Compound 26, (E)-3-((6-(4-(2-cyanovinyl)-2,6-dimethylphenoxy)-8-(difluoromethyl)-7H-purin-2-yl)amino)bicyclo[1.1.1]pentane-1-carbonitrile], for which the EC50 came out at 347 nM.

With `Cc1cc(/C=C/C#N)cc(C)c1Oc1nc(NC23CC(C#N)(C2)C3)nc2c1n(C(F)F)c(=O)n2C(F)F` [Compound 28, (E)-3-((6-(4-(2-cyanovinyl)-2,6-dimethylphenoxy)-7,9-bis(difluoromethyl)-8-oxo-8,9-dihydro-7H-purin-2-yl)amino)bicyclo[1.1.1]pentane-1-carbonitrile], the response was half-maximal at 44 nM (EC50).

`Cc1cc(/C=C/C#N)cc(C)c1Oc1nc(NC23CC(C#N)(C2)C3)nc2c1ncn2CC1(C#N)CC1` [Compound 45, (E)-3-((9-((1-cyanocyclopropyl)methyl)-6-(4-(2-cyanovinyl)-2,6-dimethylphenoxy)-9H-purin-2-yl)amino)bicyclo[1.1.1]pentane-1-carbonitrile] registered an EC50 of 53 nM. Turning to `COCCNc1nc2nc(NC34CC(C#N)(C3)C4)nc(Oc3c(C)cc(/C=C/C#N)cc3C)c2[nH]1` [Compound 46, (E)-3-((6-(4-(2-cyanovinyl)-2,6-dimethylphenoxy)-8-((2-methoxyethyl)amino)-7H-purin-2-yl)amino)bicyclo[1.1.1]pentane-1-carbonitrile], the half-maximal effective concentration (EC50) stood at 88.6 nM. Compared with the last molecule, the EC50 is about 1.7-fold higher.

The molecule `CCNc1nc2nc(NC34CC(C#N)(C3)C4)nc(Oc3c(C)cc(/C=C/C#N)cc3C)c2[nH]1` [Compound 47, (E)-3-((6-(4-(2-cyanovinyl)-2,6-dimethylphenoxy)-8-(ethylamino)-7H-purin-2-yl)amino)bicyclo[1.1.1]pentane-1-carbonitrile] returned an EC50 of 118 nM.

`Cc1cc(/C=C/C#N)cc(C)c1Oc1nc(NC23CC(C#N)(C2)C3)nc2nc(Nc3ccn(C)n3)[nH]c12` [Compound 48, (E)-3-((6-(4-(2-cyanovinyl)-2,6-dimethylphenoxy)-8-((1-methyl-1H-pyrazol-3-yl)amino)-7H-purin-2-yl)amino)bicyclo[1.1.1]pentane-1-carbonitrile] had an EC50 of 151 nM.

In turn, `Cc1cc(/C=C/C#N)cc(C)c1Oc1nc(NC23CC(C#N)(C2)C3)nc2nc(C3CCCCC3)[nH]c12` [Compound 51, (E)-3-((6-(4-(2-cyanovinyl)-2,6-dimethylphenoxy)-8-cyclohexyl-7H-purin-2-yl)amino)bicyclo[1.1.1]pentane-1-carbonitrile] gave an EC50 of 374 nM. In the case of `Cc1cc(/C=C/C#N)cc(C)c1Oc1nc(NC23CC(C#N)(C2)C3)nc2nc(C3CCOCC3)[nH]c12` [Compound 52, (E)-3-((6-(4-(2-cyanovinyl)-2,6-dimethylphenoxy)-8-(tetrahydro-2H-pyran-4-yl)-7H-purin-2-yl)amino)bicyclo[1.1.1]pentane-1-carbonitrile], the EC50 was 137 nM. The molecule `Cc1cc(/C=C/C#N)cc(C)c1Oc1nc(NC23CC(C#N)(C2)C3)nc2nc(C3CCCC3)[nH]c12` [Compound 53, (E)-3-((6-(4-(2-cyanovinyl)-2,6-dimethylphenoxy)-8-cyclopentyl-7H-purin-2-yl)amino)bicyclo[1.1.1]pentane-1-carbonitrile] displayed an EC50 of 233 nM. `Cc1cc(/C=C/C#N)cc(C)c1Oc1nc(NC23CC(C#N)(C2)C3)nc2nc(C3CCC(F)(F)CC3)[nH]c12` [Compound 54, (E)-3-((6-(4-(2-cyanovinyl)-2,6-dimethylphenoxy)-8-(4,4-difluorocyclohexyl)-7H-purin-2-yl)amino)bicyclo[1.1.1]pentane-1-carbonitrile] had a concentration giving a half-maximal response (EC50) of 364 nM. For `Cc1cc(/C=C/C#N)cc(C)c1Oc1nc(NC23CC(C#N)(C2)C3)nc2c1nc(C)n2CCC#N` [Compound 57, (E)-3-((9-(2-cyanoethyl)-6-(4-(2-cyanovinyl)-2,6-dimethylphenoxy)-8-methyl-9H-purin-2-yl)amino)bicyclo[1.1.1]pentane-1-carbonitrile], the response was half-maximal at 147 nM (EC50). Take `Cc1cc(/C=C/C#N)cc(C)c1Oc1nc(NC23CC(C#N)(C2)C3)nc2nc(-c3cc[nH]n3)[nH]c12` [Compound 63, (E)-3-((6-(4-(2-cyanovinyl)-2,6-dimethylphenoxy)-8-(1H-pyrazol-3-yl)-7H-purin-2-yl)amino)bicyclo[1.1.1]pentane-1-carbonitrile]: the EC50 is 62.8 nM. `Cc1cc(/C=C/C#N)cc(C)c1Oc1nc(NC23CC(C#N)(C2)C3)nc2nc(-c3ccn(C)n3)[nH]c12` [Compound 65, (E)-3-((6-(4-(2-cyanovinyl)-2,6-dimethylphenoxy)-8-(1-methyl-1H-pyrazol-3-yl)-7H-purin-2-yl)amino)bicyclo[1.1.1]pentane-1-carbonitrile] yielded a concentration for a half-maximal effect (EC50) of 132 nM. In the case of `Cc1cc(/C=C/C#N)cc(C)c1Oc1nc(NC23CC(C#N)(C2)C3)nc2nc(-c3cn[nH]c3)[nH]c12` [Compound 66, (E)-3-((6-(4-(2-cyanovinyl)-2,6-dimethylphenoxy)-8-(1H-pyrazol-4-yl)-7H-purin-2-yl)amino)bicyclo[1.1.1]pentane-1-carbonitrile] it was 298 nM; in that of `Cc1cc(/C=C/C#N)cc(C)c1Oc1nc(NC23CC(C#N)(C2)C3)nc2nc(Nc3c(C)noc3C)[nH]c12` [Compound 67, (E)-3-((6-(4-(2-cyanovinyl)-2,6-dimethylphenoxy)-8-((3,5-dimethylisoxazol-4-yl)amino)-7H-purin-2-yl)amino)bicyclo[1.1.1]pentane-1-carbonitrile], 231 nM.

Turning to `Cc1cc(/C=C/C#N)cc(C)c1Oc1nc(NC23CC(C#N)(C2)C3)nc2nc(Nc3ccccn3)[nH]c12` [Compound 68, (E)-3-((6-(4-(2-cyanovinyl)-2,6-dimethylphenoxy)-8-(pyridin-2-ylamino)-7H-purin-2-yl)amino)bicyclo[1.1.1]pentane-1-carbonitrile], the EC50 was determined as 273 nM.

Broadly, the EC50 is the concentration that produces a half-maximal response. Read a low EC50 as higher potency in that assay.
